Measured values reported in US5280014A, “Treatment of obesity and essential hypertension and related disorders” (Amylin Pharmaceuticals, Inc., priority 1991, dated 1994).

What was measured:
BC3H-1 myocytes = assay: insulin-stimulated glucose uptake in cultured BC3H-1 myocytes; format: cell-based; details: 10^-8 M CGRP, all insulin concentrations, FIG. 4
Description: (§1) In vitro studies in isolated adipocytes and cultured BC3H-1 myocytes were also conducted. […] Since 80-90% of in vivo insulin-stimulated glucose disposal represents skeletal muscle glucose uptake, an in vitro muscle cell system was also examined.

isolated adipocytes [1] = assay: 2-deoxyglucose uptake in isolated adipocytes; format: cell-based
Description: as §1

anaesthetised rats = assay: hyperinsulinemic euglycemic glucose clamp in rats infused with insulin and CGRP; details: for steady-state glucose infusion rate necessary to maintain euglycemia: FIG. 2A: insulin 1.8 mU/kg/min for 210 min, CGRP 0.02 ug/kg/min added from 80-150 min; for hepatic glucose output (HGO) / suppression of hepatic glucose output (HGO): FIG. 2B clamp, insulin alone or insulin in the presence of CGRP; for suppression of hepatic glucose output (HGO): from basal 11.2±0.7 mg/kg/min; for mean steady-state glucose infusion rate: FIG. 2B: CGRP 0.02 ug/kg/min plus insulin 1.8 mU/kg/min for 75 min, then insulin alone for 130 min; for mean steady-state plasma insulin level: insulin 1.8 mU/kg/min
From the text: In these experiments, the overall glucose disposal rate (GDR) equals the glucose rate plus hepatic glucose output (HGO).
In addition to stimulation of peripheral glucose disposal, another important in vivo glucoregulatory effect of insulin is to inhibit HGO.

[2] = system: spontaneously hypertensive (SHR) rats; details: continuous intravenous infusion of purified rat relaxin; single reported study; cited from earlier work
[3] = system: isolated soleus muscle from rats; assay: amylin antagonist assay: incorporation of radiolabelled glucose into glycogen in isolated soleus muscle; format: cell-based, rat
Description: Insulin was obtained as Humulin-R, 100 U/mL, recombinant human insulin (Eli Lilly, Indianapolis, Ind.). […] An antagonist assay was performed in vitro using the isolated soleus muscle from rats.
The right and left soleus muscles of 4-hour fasted rats were removed immediately after decapitation of the animals, divided in half and temporarily placed in physiological saline. Muscles were assigned to different treatment groups so that the 4 muscle pieces from each animal were evenly distributed among the 9 flasks representing the different assay conditions. […] Pharmacologically active agents were added to the 10mL of medium to result in the above stated concentrations and mixtures. […]
Dissolved glycogen was precipitated out by addition of 3 mL absolute ethanol and cooling to -20° C. overnight. […] The remaining glycogen was redissolved in water and scintillation fluid and counted for ^14 C.
From a knowledge of the specific activity of ^14 C-glucose in the 5.5 mM glucose of the incubation medium, and the total ^14 C counts remaining in the glycogen extracted from each muscle, it was possible to determine the net rate of glycogen synthesis over the final 60 minute incubation period. This was normalized per mass of muscle and expressed as μmoles of glucosyl units incorporated into glycogen per hour per gram of muscle. […]

normal rats = assay: intravenous amylin bolus in normal rats (hyperglycemia, respiratory quotient); format: in vivo, rat
From the text: The hyperglycemia is partly accounted for by an increase in hepatic (endogenous) glucose output and partly by an increased impediment in peripheral glucose disposal.

isolated adipocytes [4] = assay: formation of CO2 or triacylglycerol from glucose in isolated adipocytes; format: cell-based
[5] = system: isolated incubated skeletal muscles of the rat; assay: effect of amylin on glucose uptake and glycogen synthesis in isolated incubated skeletal muscle; format: cell-based
isolated adipocytes [6] = details: Cooper et al. 1988; cited from earlier work
[7] = FIG. 2B protocol, last 20 min of each period

calcitonin gene-related peptide [CGRP]
effect on insulin-stimulated glucose uptake (BC3H-1 myocytes): significantly inhibited
effect on basal or insulin-stimulated 2-deoxyglucose uptake (isolated adipocytes [1]): no effect
inhibition of insulin-stimulated GDR (anaesthetised rats; CGRP infusion rate 0.005 ug/kg/min): no inhibition
inhibition of insulin-stimulated GDR (anaesthetised rats; CGRP infusion rate 0.01 ug/kg/min): intermediate effect
steady-state glucose infusion rate necessary to maintain euglycemia (anaesthetised rats): 18.0 ± 0.1 mg/kg/min
hepatic glucose output (HGO) (anaesthetised rats): 8.0 mg/kg/min
suppression of hepatic glucose output (HGO) (anaesthetised rats): 29%
rise of GDR above basal (anaesthetised rats; [7]): 7.4 ± 1.6 mg/kg/min
mean steady-state glucose infusion rate (anaesthetised rats): 9.9 ± 0.3 mg/kg/min

relaxin
effect on systolic blood pressure [2]: highly effective in reducing systolic blood pressure

insulin
increase in rate of glycogen synthesis ([3]; 1000 μU/mL insulin added to media): 3.7 fold
steady-state glucose infusion rate necessary to maintain euglycemia (anaesthetised rats): 26.7 ± 0.1 mg/kg/min
hepatic glucose output (HGO) (anaesthetised rats): 3.9 ± 2.7 mg/kg/min
suppression of hepatic glucose output (HGO) (anaesthetised rats): 69%
glucose disposal rate (GDR) (anaesthetised rats; FIG. 2B protocol, 3H-glucose, last 20 min of each period, basal GDR 11.2±0.7): 35.6 ± 1.3 mg/kg/min
rise of GDR above basal (anaesthetised rats; [7]): 24 ± 0.9 mg/kg/min
mean steady-state glucose infusion rate (anaesthetised rats): 32.3 ± 0.3 mg/kg/min
mean steady-state plasma insulin level (anaesthetised rats; absence of the CGRP infusion): 695±105 uU/ml
mean steady-state plasma insulin level (anaesthetised rats; presence of the CGRP infusion): 591±86 uU/ml

amylin
decrease of insulin-stimulated rate of glycogen synthesis ([3]; 20 nM amylin, 1000 μU/mL insulin): approximately 83%
persistence of hyperglycemia (normal rats; 100 μg intravenous bolus): persists for several hours
time to hyperglycemia at diabetic levels (normal rats; 100 μg intravenous bolus): 15 to 30 min
blood glucose level reached (hyperglycemia) (normal rats; 100 μg intravenous bolus, eight normal rats): around 200 mg/dL
change in respiratory quotient (RQ) (normal rats; during somatostatin infusion (no endogenous insulin release), fasted animal): no change in RQ
change in respiratory quotient (RQ) (normal rats; somatostatin absent, insulin allowed to increase): increase in respiratory quotient
effect on basal or insulin-stimulated rates of formation of CO2 or triacyglycerol (isolated adipocytes [4]): no effect
reduction in the basal rate of glycogen synthesis ([5]; basal insulin concentration 1 uU/ml): 30%
response of amylin-treated muscles to insulin ([5]; insulin concentration giving half-maximal stimulation in non amylin-treated muscles): no response to insulin
insulin concentration needed to overcome the effect of amylin in muscle ([5]; supra-physiological level): 1000 uU/ml
effect on basal or insulin-stimulated incorporation of glucose into CO2 or triglyceride (isolated adipocytes [6]): does not influence
